According to patent US20250154169A1, “COMPOUNDS AND METHODS FOR MODULATING SPLICING” (REMIX THERAPEUTICS INC., priority 2021, published 2025):

How the values were obtained:
Assay type in all cases: cell-based, human
SMN2 mRNA = assay: Splicing RT-qPCR gene panel, SMN2 canonical junction (CJ) mRNA; conditions: Homo sapiens, Tables 4A/4B, read-out: SMN2 (IC50, decrease in CJ mRNA, gene panel)
Procedure, shortened: (§1)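 A673/K562, 24 h cpd, 11-pt 3-fold from 10 uM, DMSO ≤0.25%. Lysis, direct RT-qPCR of CJ isoform, ≥duplicate. GAPDH/GUSB/PPIA norm, ΔΔCt vs DMSO → RQ → % response.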

Target C mRNA = assay: Splicing RT-qPCR gene panel, Target C canonical junction (CJ) mRNA; conditions: Homo sapiens, Tables 4A/4B, read-out: Target C (IC50, decrease in CJ mRNA, gene panel)
Procedure, shortened: as §1

HTT mRNA = assay: Splicing RT-qPCR gene panel, HTT canonical junction (CJ) mRNA; conditions: Homo sapiens, Tables 4A/4B, read-out: HTT (IC50, decrease in CJ mRNA, gene panel)
Procedure, shortened: as §1

Row | Compound | IC50 (SMN2 mRNA) | IC50 (Target C mRNA) | IC50 (HTT mRNA)
1 | Cc1cn2cc(NC(=O)c3ccc(N4CCNCC4)c4oc(C)nc34)cc(F)c2n1 [Compound 141] | < 100 nM | 100 to 1000 nM | < 100 nM
2 | Cc1cn2cc(NC(=O)c3ccc(N4CCNCC4)c4cn(C)nc34)cc(F)c2n1 [Compound 143, N-{8-fluoro-2-methylimidazo[1,2-a]pyridin-6-yl}-2-methyl-4-(piperazin-1-yl) indazole-7-carboxamide] | < 100 nM | 100 to 1000 nM | < 100 nM
3 | Cc1cn2cc(NC(=O)c3ccc(C4CCNCC4)c4cc(C)oc34)cc(F)c2n1 [Compound 145] | < 100 nM | 100 to 1000 nM | 1000 to 10000 nM
4 | Cc1cn2cc(NC(=O)c3ccc(C4CCNCC4)c4ccoc34)cc(F)c2n1 [Compound 149] | < 100 nM | > 10000 nM | 1000 to 10000 nM
5 | Cc1cn2cc(NC(=O)c3ccc(N4CCN(C)CC4)c4cc(C)oc34)cc(F)c2n1 [Compound 189] | < 100 nM | 1000 to 10000 nM | 1000 to 10000 nM
6 | Cc1cn2cc(NC(=O)c3ccc(N4CCN(C)C(C)C4)c4cc(C)oc34)cc(F)c2n1 (stereo not drawn) [Compound 191] | < 100 nM | 1000 to 10000 nM | 100 to 1000 nM
7 | CCC1CN(c2ccc(C(=O)Nc3cc(F)c4nc(C)cn4c3)c3oc(C)cc23)CCN1 (stereo not drawn) [Compound 192] | < 100 nM | 1000 to 10000 nM | 1000 to 10000 nM
8 | Cc1cn2cc(NC(=O)c3ccc(N4CCNC(C)(C)C4)c4cc(C)oc34)cc(F)c2n1 [Compound 193] | < 100 nM | > 10000 nM | 1000 to 10000 nM
9 | Cc1cn2cc(NC(=O)c3ccc(N4CCNC5(CC5)C4)c4cc(C)oc34)cc(F)c2n1 [Compound 194] | < 100 nM | > 10000 nM | 1000 to 10000 nM
10 | Cc1cn2cc(NC(=O)c3ccc(N4CC(C)(C)NC(C)(C)C4)c4cc(C)oc34)cc(F)c2n1 [Compound 195] | < 100 nM | > 10000 nM | > 10000 nM
11 | CCNC1CCN(c2ccc(C(=O)Nc3cc(F)c4nc(C)cn4c3)c3oc(C)cc23)CC1 [Compound 196] | < 100 nM | 1000 to 10000 nM | 1000 to 10000 nM
12 | Cc1cn2cc(NC(=O)c3ccc(N4CCC(NC(C)(C)C)CC4)c4cc(C)oc34)cc(F)c2n1 [Compound 197] | 100 to 1000 nM | > 10000 nM | > 10000 nM
13 | CC1=CC2C(N3CCC(N(C)C)CC3)=CC=C(C(=O)Nc3cc(F)c4nc(C)cn4c3)C2O1 (stereo not drawn) [Compound 198] | < 100 nM | 1000 to 10000 nM | 1000 to 10000 nM
14 | Cc1cn2cc(NC(=O)c3ccc(N4CCN5CCCC5C4)c4cc(C)oc34)cc(F)c2n1 (stereo not drawn) [Compound 199] | < 100 nM | 1000 to 10000 nM | 100 to 1000 nM
15 | Cc1cn2cc(NC(=O)c3ccc(C4CCNCC4)c4cn(C)nc34)cc(F)c2n1 [Compound 208] | < 100 nM | 100 to 1000 nM | 100 to 1000 nM

Results, then the molecule that gave them:

Row | IC50 (SMN2 mRNA) | IC50 (Target C mRNA) | IC50 (HTT mRNA) | Compound
16 | 100 to 1000 nM | > 10000 nM | 1000 to 10000 nM | Cc1cn2nc(NC(=O)c3ccc(C4CCNCC4)c4cc(C)oc34)cc(C)c2n1 [Compound 118]
17 | 100 to 1000 nM | > 10000 nM | 1000 to 10000 nM | Cc1cn2nc(NC(=O)c3ccc(C4CCNCC4)c4ccoc34)cc(C)c2n1 [Compound 119]
18 | 100 to 1000 nM | 1000 to 10000 nM | 1000 to 10000 nM | Cc1cn2cc(NC(=O)c3ccc(N4CCNCC4)c4nc(C)oc34)cc(F)c2n1 [Compound 140]
19 | < 100 nM | 100 to 1000 nM | 1000 to 10000 nM | Cc1cn2cc(NC(=O)c3ccc(N4CCNCC4)c4cc(C)oc34)cc(F)c2n1 [Compound 142]
20 | 100 to 1000 nM | 1000 to 10000 nM | 1000 to 10000 nM | Cc1cn2nc(NC(=O)c3ccc(N4CCNCC4)c4cc(C)oc34)cc(C)c2n1 [Compound 148]
21 | 100 to 1000 nM | 1000 to 10000 nM | 100 to 1000 nM | Cc1cn2cc(NC(=O)c3ccc(N4CCNC(C)C4)c4cc(C)oc34)cc(F)c2n1 (stereo not drawn) [Compound 190]
22 | 1000 to 10000 nM | > 10000 nM | > 10000 nM | Cc1cc2c(N3CCNCC3)ccc(C(=O)Nc3cc(F)c4cn(C)nc4c3)c2o1 [Compound 217]
